Results: paper PMC3285689, “Structure Based Design and Synthesis of Peptide Inhibitor of Human LOX-12: In Vitro and In Vivo Analysis of a Novel Therapeutic Agent for Breast Cancer” (PLoS ONE, 2012)
Several values for one entry are separate records, joined by “and”; a condition that tells them apart may be missing. Equal values may be shown once. Entries after “also recorded” stand apart in the source; their conditions may differ. Read-outs that look alike come from different tables or passages of the source. Where a SMILES comes first, the peptide text is derived from it.

How the values were obtained:
human LOX-12 (human) [1] = target: T1, human LOX-12 (human) (UniProt P18054)
T1 sequence: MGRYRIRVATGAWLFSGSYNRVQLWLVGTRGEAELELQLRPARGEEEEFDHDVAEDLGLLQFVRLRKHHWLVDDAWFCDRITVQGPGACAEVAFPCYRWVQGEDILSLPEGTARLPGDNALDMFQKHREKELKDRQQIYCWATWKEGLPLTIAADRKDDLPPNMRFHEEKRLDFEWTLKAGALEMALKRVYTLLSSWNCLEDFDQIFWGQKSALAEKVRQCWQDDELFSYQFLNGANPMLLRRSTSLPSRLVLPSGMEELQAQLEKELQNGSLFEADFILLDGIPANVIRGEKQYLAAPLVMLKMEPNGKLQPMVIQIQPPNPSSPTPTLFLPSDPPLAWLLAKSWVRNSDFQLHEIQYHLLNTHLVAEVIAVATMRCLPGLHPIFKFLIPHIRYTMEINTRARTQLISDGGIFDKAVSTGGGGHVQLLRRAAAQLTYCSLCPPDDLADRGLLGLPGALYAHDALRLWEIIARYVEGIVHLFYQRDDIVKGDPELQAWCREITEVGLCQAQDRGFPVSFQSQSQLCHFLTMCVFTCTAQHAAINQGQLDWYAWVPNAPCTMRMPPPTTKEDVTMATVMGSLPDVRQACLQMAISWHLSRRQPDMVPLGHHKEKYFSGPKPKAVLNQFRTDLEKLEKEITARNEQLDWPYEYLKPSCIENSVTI

LOX-12 [2] = target: T2, LOX-12 (Homo sapiens, UniProt P18054); assay: Inhibition of human LOX-12 activity, spectrophotometric screen; assay type: biochemical; conditions: LOX-12 incubated with peptide 30 min; arachidonic acid, 0.2% Tween-20, 50 mM potassium phosphate pH 7.2; absorbance 269 nm; average of triplicates; inhibitor concentration not given
T2 construct: made in house; host or cells: E. coli BL21 codon+ (pET28a)
T2 sequence (P18054 1-663): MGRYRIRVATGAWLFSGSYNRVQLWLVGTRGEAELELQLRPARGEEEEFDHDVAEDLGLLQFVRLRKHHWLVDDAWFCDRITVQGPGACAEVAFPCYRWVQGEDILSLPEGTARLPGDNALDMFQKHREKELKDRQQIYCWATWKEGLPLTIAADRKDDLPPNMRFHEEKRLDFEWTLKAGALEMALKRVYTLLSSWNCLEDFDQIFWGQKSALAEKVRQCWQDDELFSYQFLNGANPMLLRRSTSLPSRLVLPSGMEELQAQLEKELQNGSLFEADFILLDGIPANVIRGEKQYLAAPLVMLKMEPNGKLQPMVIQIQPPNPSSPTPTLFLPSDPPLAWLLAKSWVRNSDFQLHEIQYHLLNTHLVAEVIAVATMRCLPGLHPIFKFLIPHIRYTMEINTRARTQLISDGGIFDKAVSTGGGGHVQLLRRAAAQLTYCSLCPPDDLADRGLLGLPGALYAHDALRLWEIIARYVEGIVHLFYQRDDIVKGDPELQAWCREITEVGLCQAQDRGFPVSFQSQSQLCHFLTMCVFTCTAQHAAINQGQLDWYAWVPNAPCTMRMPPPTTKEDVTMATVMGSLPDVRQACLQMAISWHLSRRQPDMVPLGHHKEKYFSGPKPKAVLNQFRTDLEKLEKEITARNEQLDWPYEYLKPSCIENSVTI
Experimental: For inhibition study, the human LOX-12 was incubated with peptide for 30 min, which was then added to the reaction buffer containing arachidonic acid (substrate), 0.2% Tween-20, 50 mM potassium phosphate buffer pH 7.2. The change in absorbance was monitored at 269 nm and the percentage of inhibition was calculated. A control reaction was always carried out without any peptide inhibitor to ensure the activity of protein under experimental conditions.
The activity assay for LOX-12 in presence of 10 different peptides with substrate was performed by using spectrophotometer. The assay was performed at 269 nm which gives the absorption maxima for the product LTB4.

LOX-12 [3] = target: T2, LOX-12; assay: Kinetic assay of LOX-12 inhibition (Michaelis-Menten, competitive Ki); assay type: biochemical
Experimental: For kinetic assay, the above experiment was done with four different concentrations of peptides (25–100 µM). For each concentration of peptide the experiment was repeated with six different concentrations (20–120 µM) of substrate, arachidonic acid. The enzyme concentration was constant (1.0 µM) throughout the assay. The competitive kinetic constant (Ki) was calculated graphically using the Michaelis-Menton equation in graphpad prism software. The graph of activity vs. concentration of arachidonic acid was plotted.
Competitive kinetic constant of the best peptide YWCS was calculated using graphpad prism software.

LOX-12 [4] = target: T2, LOX-12; assay: SPR binding of peptides to immobilized His-LOX-12 (BIAcore 2000); conditions: His-LOX-12 on Ni2+-NTA chip, analyte 25, 50, 75 µM, flow 10 µl/min, BIA evaluation 3.0, read-out: Dissociation constant KD
human red blood cells = assay: Hemolysis of human red blood cells; assay type: cell-based; conditions: concentration upto 358 µM; hRBC 1% (v/v) in PBS pH 7.0, 1 h at 37°C, absorbance 541 nm, triplicate
Experimental: The effect of peptide on hemolysis was determined by using human red blood cells (hRBC from volunteer). The freshly collected hRBC were centrifuged for 10 mins to remove the buffy coat and washed with phosphate buffered saline (PBS: 35 mM Na2HPO4, pH 7.0 and 150 mM NaCl). 100 µl of the hRBC (suspended in 1% (v/v) in PBS) and 10 µl peptide solution were added into the sterile 96 well plates in triplicate. The plates were incubated for 1 h at 37°C and centrifuged at 1000× g for 5 mins. The supernatant were transferred to fresh 96 well plates, where hemoglobin released was monitored by measuring the absorbance spectrophotometrically at 541 nm. Similar steps were carried out for Gentamycin, as a control. The percentage of hemolysis (determined in PBS and 0.1% Triton X-100) was calculated from the standard graph which was plotted with % hemolysis of prepared RBCs vs optical densities.
The haemolytic activity of the peptide was determined to ensure the toxicity to erythrocytes using human RBCs. The concentration upto 358 µM of the peptide lysed only 22% human erythrocytes ( Figure 2 ).

MCF-7 cells = assay: Annexin-V binding apoptosis assay by flow cytometry, MCF-7; assay type: cell-based, human; conditions: 72 h, annexin-V/PI flow cytometry
Experimental: The frequency of apoptosis in MCF7 cells and MDA-MB-231 by the treatment with YWCS was assayed by annexin-V binding assay. Briefly, MCF7 cells and MDA-MB-231 were pulsed with the peptide for 72 h. After termination of the culture, cells were stained with annexin-V apoptosis detection kit (Biolegend) according to the manufacturer's instructions. The cells were washed twice with PBS, and resuspended in annexin-V binding buffer. To the cell suspension, 5 µl of FITC-conjugated annexin-V (Biolegend) and 10 µl of propidium iodide (PI) (50 µg/ml) solution were added and further incubated for 15 min at room temperature. About 10,000 events were acquired in FACS Canto flow cytometer (Becton–Dickinson, USA). The frequency of annexin-positive (apoptotic) cells was determined using BD FACSDiva software.
The apoptotic activity of the peptide YWCS was performed using annexin-V binding assay. Apoptosis induction was observed as early as 72 h.

MDA-MB-231 cells = assay: Annexin-V binding apoptosis assay by flow cytometry, MDA-MB-231; assay type: cell-based, human; conditions: 72 h, annexin-V/PI flow cytometry
[5] = test system: Ehrlich's Ascites Tumor cell line (EAT) (murine breast carcinoma); assay: Antitumor activity in Swiss albino mice implanted with EAT tumor cell line; assay type: in vivo
Experimental: In-vivo animal experimentation of peptide for anticancer activity was done using mice model. Swiss albino mice were obtained from Central animal facility, AIIMS at 55–65 days of age. The animals were housed in polycarbonated cages, bedded with husk. The animal facility was environmentally controlled; mice were maintained at normal room temperature with suitable relative humidity and 12 h light, 12 h dark cycle. Animals were fed chow food and purified water ad libitum throughout the study. Animals were randomized into 5mice per cage in 3 groups (Group I, II and III) for the study.
Ehrlich's Ascites Tumor cell line (EAT) (murine breast carcinoma), was used for tumor induction. The cell line was maintained in-vivo by passaging weekly intraperitonealy (i.p) from mice to mice. For tumor induction, 14 million cells approximately 150 µl volumes was injected to the animal in a group subcutaneously on the dorsal side of the body (back) and kept under observation for tumor onset.
Tumor size was recorded by vernier calipers and tumor volume was calculated using the formula: V = 0.5×L×W^2, where L is the length (long axis) and W is the width (short axis).
In Group I (control, untreated) only tumor cell line was administered. In group II, YWCS peptide was administered when the tumor volume reached 0.22±0.10 cm^3 on day 10, at a dose of […] intravenously (i.v) per mouse once daily for 20 days from day 11 to day 30. In group III, same concentration of peptide was injected intravenously (i.v) simultaneously after injecting tumor cells subcutaneously on day one. During experimental period mice were under observation till sacrificed.

MCF-7 = conditions: MCF-7, MTT, 72 h
Experimental: (§1) Cytotoxic effect of LOX-12 inhibitory peptides was analyzed on MCF-7 (ER+) and MDA-MB-231 (ER+) breast cancer cell lines by MTT [3-(4, 5-dimethylthiazol-2-yl)-2, 5-diphenyltetrazolium bromide] dye reduction assay. Briefly, 3×10^3 cells/100 µl media were seeded in 96-well plates 24 h before the experiment. The cells were then incubated with different concentrations of the peptides for 24, 48 and 72 h as indicated. The cells were treated with DMSO (same concentration as used to solubilise the peptide) which was then subtracted from all the cytotoxic values.10 µl/well MTT-solution (10 mg/ml in PBS) was then added and plates were further incubated for 3 h at 37°C. The formazan crystals formed were dissolved by adding 100 µl/well of dimethyl sulfoxide (DMSO). Absorbance was measured by a microplate reader at 570 nm with a reference filter 650 nm. 100 µl of medium with 10 µl of MTT stock-solution and 100 µl of DMSO was used as a blank solution to correct the background. The data obtained was presented as percentage viability in the best-fit (linear) dose response curve. The IC50 values at 95% confidence intervals was calculated for all cell lines. Each concentration was used in triplicate. The peptide AIRS was used as a negative control.
(§2) MCF-7 cells were treated with 0–150 µM (0.05% DMSO as a vehicle control) and MDA-MB-231 was treated with 0–500 µM (0.05% DMSO as a vehicle control) of the LOX-12 inhibitory peptides for 24, 48 and 72 h to perform the cytotoxic activity.

MDA-MB-231 = conditions: 72 h; for percentage of cell viability: MDA-MB-231, MTT
Experimental: as §1, §2

human LOX-12 (human) [6] = target: T1, human LOX-12 (human); remark: listed apart in the source
human LOX-12 (human) [7] = target: T1, human LOX-12 (human); assay: enzyme inhibition kinetics (spectrophotometric); 1.0 µM LOX-12 incubated with peptide (25-100 µM) for 30 min; arachidonic acid 20-120 µM, 0.2% Tween-20, 50 mM potassium phosphate pH 7.2; absorbance at 269 nm; competitive Ki from the Michaelis-Menten equation (GraphPad Prism)

YW (peptide)
% inhibition of LOX-12 enzyme activity (arachidonic acid substrate, absorbance at 269 nm) (human LOX-12 (human) [1]): 73.2%

WFC (peptide)
% inhibition of LOX-12 enzyme activity (arachidonic acid substrate, absorbance at 269 nm) (human LOX-12 (human) [1]): 72.1%

YWG (peptide)
% inhibition of LOX-12 enzyme activity (arachidonic acid substrate, absorbance at 269 nm) (human LOX-12 (human) [1]): 71.6%

WFA (peptide)
% inhibition of LOX-12 enzyme activity (arachidonic acid substrate, absorbance at 269 nm) (human LOX-12 (human) [1]): 73.5%

FWCS
% inhibition (LOX-12 [2]): 74.2%

O=c1cc(-c2ccccc2)oc2cc(O)c(O)c(O)c12 [Baicalein, reference compound]
% inhibition (LOX-12 [2]): 85.1%

WKS (peptide)
% inhibition of LOX-12 enzyme activity (arachidonic acid substrate, absorbance at 269 nm) (human LOX-12 (human) [1]): 53.2%

N[C@@H](Cc1ccc(O)cc1)C(=O)N[C@@H](Cc1c[nH]c2ccccc12)C(=O)N[C@@H](CS)C(=O)N[C@@H](CO)C(=O)O [YWCS] (H-YWCS-OH)
% inhibition (LOX-12 [2]): 86.1%
Mode of inhibition (LOX-12 [3]; linearised analysis of Michaelis-Menten data, in presence of substrate arachidonic acid): competitive mode of inhibition
Ki (LOX-12 [3]; peptide 25-100 µM, arachidonic acid 20-120 µM, enzyme 1.0 µM, Michaelis-Menten fit in graphpad prism, read-out: Competitive kinetic constant Ki): 7.25 µM
Kd (LOX-12 [4]): 33.9 nM
Percentage of hemolysis of human erythrocytes (human red blood cells): 22%
mean percentage apoptotic cells (MCF-7 cells; MCF-7, 50 µM): 41.2±5.8%
mean percentage apoptotic cells (MCF-7 cells; MCF-7, 75 µM): 49.8% and 49.8±6.5%
mean percentage apoptotic cells (MCF-7 cells; MCF-7, 100 µM): 58.3±7.5%
mean percentage apoptotic cells (MDA-MB-231 cells; MDA-MB-231, 350 µM): 15.0±1.2%
mean percentage apoptotic cells (MDA-MB-231 cells; MDA-MB-231, 400 µM): 20.8% and 20.8±3.2%
mean percentage apoptotic cells (MDA-MB-231 cells; MDA-MB-231, 450 µM): 22.1±1.5%
Tumor volume, Day 20 ([5]; Group II, 200 µmol i.v. per mouse once daily from day 11 to day 30, control 2.09±0.06): 1.62±0.49 cm^3
Tumor volume, Day 30 ([5]; Group II, 200 µmol i.v. per mouse once daily from day 11 to day 30, control 4.5±0.24): 3.04±1.06 cm^3
Size of liver and spleen in sacrificed animals ([5]; Group II, peptide treated for 20 days, control Group I showed the same): liver and spleen enlargement
Tumor volume, Day 20 ([5]; Group III, 200 µmol peptide i.v. simultaneously after injecting EAT cells s.c. on day one): No tumor was observed; also recorded: No tumor onset
percentage cell viability (MCF-7; 25 µM): 88.6%
percentage cell viability (MCF-7; 50 µM): 85.7%
percentage cell viability (MCF-7; 100 µM): 31.2%
percentage cell viability (MCF-7; 150 µM): 21.1%
IC50 (MCF-7; read-out: IC50 (cell viability), triplicate): 75 µM
IC50 (MDA-MB-231): 400 µM
percentage of cell viability (MDA-MB-231; 50 µM): 92%
percentage of cell viability (MDA-MB-231; 100 µM): 87.46%
percentage of cell viability (MDA-MB-231; 150 µM): 80.36%
percentage of cell viability (MDA-MB-231; 200 µM): 72.51%
percentage of cell viability (MDA-MB-231; 350 µM): 54.76%
percentage of cell viability (MDA-MB-231; 400 µM): 48.19%
percentage of cell viability (MDA-MB-231; 500 µM): 43.07%

FYS (peptide)
% inhibition of LOX-12 enzyme activity (arachidonic acid substrate, absorbance at 269 nm) (human LOX-12 (human) [1]): 79.8%

FWY (peptide)
% inhibition of LOX-12 enzyme activity (arachidonic acid substrate, absorbance at 269 nm) (human LOX-12 (human) [1]): 80.4%

AIYW
% inhibition (LOX-12 [2]): 69.3%

AIYW
% inhibition of LOX-12 enzyme activity (arachidonic acid substrate, absorbance at 269 nm) (human LOX-12 (human) [1]): 69.3%

FWCS
% inhibition of LOX-12 enzyme activity (arachidonic acid substrate, absorbance at 269 nm) (human LOX-12 (human) [1]): 74.2%

YWCS
% inhibition of LOX-12 enzyme activity (arachidonic acid substrate, absorbance at 269 nm) (human LOX-12 (human) [1]): 86.1%
% inhibition of LOX-12 enzyme activity (arachidonic acid substrate, absorbance at 269 nm) (human LOX-12 (human) [6]): 80%
Ki (human LOX-12 (human) [7]): 7.25 µM
